Counter-ions that a name gives are not always drawn. Activity calls are given as the source filed them. The rule behind the calls is not given here.
Assay: Cytotoxicity activity against human HepG2 cells assessed by CellTiter-Glo luminescent cell viability assay.
Type: toxicity, cell-based
Parameters: assay stage confirmatory assay, source tissue liver
Details: HepG2 cells, read-out: IC50 relative

SMILES	CC50
CCOc1ccccc1CN1CCN(Cc2ccc(C)cc2)CC1CCO (centres undefined)	12.9 µM (inactive)
COc1cc2ncnc(Nc3cccc(Cl)c3)c2cc1OC [TYRPHOSTIN AG-1478]	8.3 µM (active)
CCOc1ncccc1C(=O)NCc1nccc2ccccc12	3.9 µM (active)
COc1cc(N2CCC(N3CCN(C)CC3)CC2)ccc1Nc1ncc(Cl)c(Nc2ccccc2P(C)(C)=O)n1 [BRIGATINIB]	5.7 µM (active)
CCCCCCCC(=O)N[C@H](CN1CCCC1)[C@H](O)c1ccc2c(c1)OCCO2	15.7 µM (inactive)
Cc1ccc(Nc2ncc3c(n2)N(C)C(=O)N(c2cc(NC(=O)c4cccc(C(F)(F)F)c4)ccc2C)C3)cn1	0.1 µM (active)
COc1cccc(NC(=O)Nc2nc3ccc(S(C)(=O)=O)cc3s2)c1	18.1 µM (inactive)
C[C@]12CC[C@H](O)CC1=CC[C@@H]1[C@@H]2CC[C@]2(C)C(n3cnc4ccccc43)=CC[C@@H]12 [GALETERONE]	10.4 µM (active)
Cc1cccc2nc(C(=O)Nc3ccc(S(=O)(=O)Nc4nccs4)cc3)cn12	1.4 µM (inactive)
CCCCOc1ccc(C(=O)CCN2CCCCC2)cc1 [DYCLONINE HYDROCHLORIDE]	9.9 µM (active)
C[C@H]1CN(C)c2ccccc2N(Cc2cc3ccccc3c(=O)[nH]2)C1	16.9 µM (inactive)
CNC(=O)c1ccccc1Nc1cc(Nc2ccc(N3CCOCC3)cc2OC)ncc1C(F)(F)F [VS-4718]	3.7 µM (active)
Cc1cc(Nc2ncc(Cl)c(Nc3ccccc3S(=O)(=O)C(C)C)n2)c(OC(C)C)cc1C1CCNCC1 [CERITINIB]	0.7 µM (active)
COc1ccc(Cc2nccc3cc(OC)c(OC)cc23)cc1OC [PAPAVERINE]	12.8 µM (active)
CCN1CCN(CCOc2ccc3ccccc3c2Cl)CC1	8 µM (active)
CN(C)CCCn1cc(C2=C(c3c[nH]c4ccccc34)C(=O)NC2=O)c2ccccc21 [GF-109203]	4.8 µM (active)
COc1cc(N2CCC(N(C)C)CC2)ccc1Nc1ncc(Cl)c(Nc2ccccc2P(C)(C)=O)n1	2.6 µM (active)
O=C1CCc2c(Oc3ccc4c(c3)[C@@H]3[C@H](O4)[C@H]3c3nc4ccc(C(F)(F)F)cc4[nH]3)ccnc2N1 [LIFIRAFENIB]	0.5 µM (active)
Cc1[nH]c2ccccc2c1CN1CCN(c2ccccn2)CC1	12.9 µM (inactive)
Cc1cccc(CC(=O)N2CCc3c2ccc(-c2cn(C)c4ncnc(N)c24)c3F)n1	6.7 µM (active)
CC1=C(/C=C/C(C)=C/C=C/C(C)=C/C(=O)Nc2ccc(O)cc2)C(C)(C)CCC1 [FENRETINIDE]	10.8 µM (active)

SMILES	CC50
Cc1cc(C(=O)Nc2cc(Cl)ccc2N2CCN(C)CC2)no1	11.9 µM (active)
CN(C)CC1CCN(Cc2[nH]c3ccccc3c2Cl)C1 (centres undefined)	5.8 µM (active)
O=S(=O)(Nc1cccc2cccnc12)c1ccc2c(c1)OCCO2	10.4 µM (active)
Nc1ncnc2c1c(I)cn2[C@@H]1O[C@H](CO)[C@@H](O)[C@H]1O [IODOTUBERCIDIN]	0.4 µM (active)
CCC1=NNc2cccc3c(OC)ccc1c23	8.8 µM (active)
Cc1nc2n(c(=O)c1C)CN(CCCO)CN2c1ccc(Cl)cc1Cl	50 µM (inactive)
CNC(=O)c1cc(Oc2ccc(NC(=O)Nc3ccc(Cl)c(C(F)(F)F)c3)c(F)c2)ccn1 [REGORAFENIB]	1.7 µM (active)
CCN(CC)CCN(Cc1ccc(-c2ccc(C(F)(F)F)cc2)cc1)C(=O)Cn1c(SCc2ccc(F)cc2)nc(=O)c2c1CCC2 [DARAPLADIB]	1.5 µM (active)
CCc1nc(C)c([C@H](C)N(C)Cc2cccnc2N)s1	13.8 µM (active)
CNCc1ccc(-c2cc(-c3nc(-c4ccc(S(=O)(=O)C(C)C)cc4)cnc3N)on2)cc1 [BERZOSERTIB]	2.7 µM (active)
CN1CCC(c2cc(-c3ccncc3)c(-c3ccc(F)cc3)[nH]2)CC1	9.2 µM (active)
CCN(CC)C(=O)c1sc2[nH]c(-c3ccccn3)nc(=O)c2c1C	6 µM (active)
CC(C)[C@H](NC1CCN(C(=O)c2ccoc2)CC1)c1ccccc1	10.7 µM (active)
C[C@@H](OC[C@@]1(c2ccccc2)CC[C@]2(CCC(=O)N2)CN1)c1cc(C(F)(F)F)cc(C(F)(F)F)c1 [ROLAPITANT]	8.9 µM (active)
Cc1cnc(NC(=O)Nc2cc(Br)c(C)cc2OC[C@@H]2CNCCO2)cn1 [RABUSERTIB]	5.9 µM (active)
Cc1ccc2ncc(C(=O)Nc3ccc(Cl)cc3O)c(=O)n2c1	1.4 µM (inactive)
Cc1cc(-c2csc(NC(=O)c3coc(S(=O)(=O)N(C)C)c3)n2)c(C)o1	16.5 µM (inactive)
O[C@@H](CNCc1cc2ccccc2nc1N1CCCCC1)CN1CCCC1	9.8 µM (active)
O=c1ccc2ccc(OCCCCN3CCN(c4cccc5sccc45)CC3)cc2[nH]1 [BREXPIPRAZOLE]	8.4 µM (active)
C[C@H](O)CN1CCC(CNCc2cccc(C(F)(F)F)c2)CC1	15.5 µM (inactive)
COc1ccc(-c2cnc3ccc(N4CCCC4)nn23)cc1OC	4.3 µM (active)

SMILES	CC50
CCn1c(-c2cccc(S(=O)(=O)N3CCOCC3)c2)cs/c1=N/c1ccccc1	5 µM (active)
O=C(NC[C@H](O)CO)c1ccncc1Nc1ccc(I)cc1F [PIMASERTIB]	< 0.1 µM (active)
Fc1ccccc1CC1CCN(C[C@H]2[C@@H]3CNC[C@@H]32)CC1	8.8 µM (active)
CCNC(=O)C[C@@H]1N=C(c2ccc(Cl)cc2)c2cc(OC)ccc2-n2c(C)nnc21 [MOLIBRESIB]	2.6 µM (active)
CCOc1ccc(NC(=O)c2nc(S(C)(=O)=O)ncc2Br)cc1	1.6 µM (active)
O=C(Nc1nc2ccccc2[nH]1)c1ccc(-n2cccn2)cc1	48.2 µM (inactive)
NCC[C@H](N)C(=O)N1CCC2(CCC(=O)N(Cc3ccccc3)C2)CC1	11.5 µM (active)
C=CCc1cccc(/C=N/NC(=O)CN2CCN(Cc3ccccc3)CC2)c1O [PAC-1]	6.3 µM (active)
COc1cc(-c2noc(-c3ccc4c(c3)OCO4)n2)cc(OC)c1OC	0.1 µM (active)
Cc1cnc(Nc2ccc(OCCN3CCCC3)cc2)nc1Nc1cccc(S(=O)(=O)NC(C)(C)C)c1 [FEDRATINIB]	1.1 µM (active)
CC(C)(O)CNc1ncc(-c2ccnc(Nc3ccnc(Cl)c3)n2)c(CC2CC2)n1	4 µM (active)
COc1ccc(-c2nnc(Cn3ncc(Cl)c(Cl)c3=O)o2)cc1	0.9 µM (active)
CC(C)c1cnc(NC(=O)N2CC3(CN(C)C(=O)O3)C2)s1	12.7 µM (inactive)
CCCc1nnsc1C(=O)Nc1nc2ccccc2[nH]1	19 µM (inactive)
CN(C)C(=O)N[C@H]1CC[C@H](CCN2CCN(c3cccc(Cl)c3Cl)CC2)CC1 [CARIPRAZINE HYDROCHLORIDE]	14.1 µM (active)
Cc1cccc(C(=O)N[C@@H]2CN(Cc3ccccc3)C[C@H]2CN(C)C)c1	10 µM (active)
CCn1c(-c2nonc2N)nc2cnc(Oc3cccc(NC(=O)c4ccc(OCCN5CCOCC5)cc4)c3)cc21 [GSK-269962A]	3 µM (active)
CCNC(=O)Nc1ccc(-c2nc3c(c(N4CCOC[C@@H]4C)n2)CCN(c2ncccn2)C3)cc1	0.2 µM (active)
O=C(Nc1ccc(O)cc1)c1cnn(Cc2ccccc2Cl)c1	8.4 µM (active)
CC(C)c1ccc(-c2cc(=O)c3ccccc3o2)cc1	11.1 µM (active)
CC(C)c1ccccc1OCC(=O)Nc1cccnc1	4 µM (active)

SMILES	CC50
O=C1C(=O)c2cc([N+](=O)[O-])ccc2-c2ccccc21	1.5 µM (active)
CC1=C(c2ccccc2)C1C(=O)NC1(C(N)=O)CCCCC1 (centres undefined)	14.7 µM (active)
CC(C)(C)NC(=O)[C@@H]1C[C@@H]2CCCC[C@@H]2CN1CC(O)[C@H](Cc1ccccc1)NC(=O)[C@@H](CC(N)=O)NC(=O)c1ccc2ccccc2n1 (some centres undefined)	15.7 µM (inactive)
c1ccc(Oc2cccc(C[C@H]3CCCN3)c2)cc1	13.7 µM (inactive)
C[C@H]1O[C@@H](O[C@H]2[C@@H](O)C[C@H](O[C@H]3[C@@H](O)C[C@H](O[C@H]4CC[C@@]5(C)[C@H](CC[C@@H]6[C@@H]5C[C@@H](O)[C@]5(C)[C@@H](C7=CC(=O)OC7)CC[C@]65O)C4)O[C@@H]3C)O[C@@H]2C)C[C@H](O)[C@@H]1O [DIGOXIN]	0.2 µM (active)
Cc1csc(NC(=O)CC[C@@H]2NC(=O)N(CCc3cccc(F)c3)C2=O)n1	8.9 µM (active)
CCNC(=O)C#Cc1ccc2c(c1)NC(=O)/C2=C(\Nc1ccc(CN(C)C)cc1)c1ccccc1	< 0.1 µM (active)
COc1ccc(C[C@H]2NC[C@H](O)[C@H]2OC(C)=O)cc1 [ANISOMYCIN]	0.3 µM (active)
O=S(=O)(c1ccc(N2CCN(c3ncnc4c3oc3ccccc34)CC2)nc1)N1CCOCC1	3.3 µM (active)
CSc1cccc(NS(=O)(=O)c2ccc3c(c2)CCN3C(C)=O)c1	6.6 µM (active)
O=S(=O)(c1ccccc1)N1CCN(c2ccc(Nc3ccncc3)nn2)CC1	16.9 µM (inactive)
COCCCN[C@H]1CS(=O)(=O)C[C@@H]1S(=O)(=O)c1ccc(Cl)cc1	16.7 µM (active)
NCC(=O)Nc1ccc(-n2nc(C(F)(F)F)cc2-c2ccc3c(ccc4ccccc43)c2)cc1 [AR-12]	50 µM (inactive)
COc1cc([C@@H]2c3cc4c(cc3[C@@H](O[C@@H]3O[C@@H]5CO[C@@H](c6cccs6)O[C@H]5[C@H](O)[C@H]3O)[C@H]3COC(=O)[C@H]23)OCO4)cc(OC)c1O [TENIPOSIDE]	6.5 µM (active)
COc1cc2c(Nc3ccc(Br)cc3F)ncnc2cc1OCC1CCN(C)CC1 [VANDETANIB]	2.6 µM (active)
O=C(Nc1nc2ccc(NC(=O)C34CC5CC(CC(C5)C3)C4)cc2s1)c1ccccc1	15 µM (inactive)
Cc1nc2ccccc2nc1CSCCCS(=O)(=O)C(C)C	0.9 µM (active)
O=C(NCCN1CCCC1)C1CCN(c2nn3cc(-c4ccc(F)cc4)nc3s2)CC1	2.7 µM (active)
CC(C)c1cc(CNc2nc(Nc3cc(C4CC4)[nH]n3)cc(N3CCN(C)CC3)n2)on1 [XL-228]	1.7 µM (active)
O=C1COc2c(CCNCCN(C(=O)CCNCCc3ccc(Cl)c(Cl)c3)C3CCCCC3)ccc(O)c2N1	10.5 µM (active)
Cc1cc(C)c(C(N)=O)c(SCC(=O)N(CCC#N)c2ccc3c(c2)OCCO3)n1	4.3 µM (active)
